The target in this test is human recombinant TAK1-TAB1 Kinase (TAK1 (1-303) and TAB1 (437-end)) (Homo sapiens (Human), UniProt O43318). The test can be described thus: TAK1 biochemical ADP-Glo kinase assay. To be noted: MBP substrate. The protocol:
The usefulness of the example compounds of the invention as TAK1 inhibitors was evaluated in a biochemical ADP-Glo kinase assay. Assay kits from Promega Corporation V4089 were used according to manufacturer's instructions and adapted as outlined here. ADP-Glo Kinase Assay kit contains ADP-Glo Reagent, Kinase Detection Reagent, kinase detection buffer, ATP, and ADP. The Kinase Enzyme Systems include human recombinant TAK1-TAB1 Kinase (TAK1 (1-303) and TAB1 (437-end)), Native Swine Myelin Basic Protein (MBP) substrate, 5×kinase reaction buffer, and DTT.
Test compounds were prepared in 1:5 serial dilutions at 8 concentrations in DMSO from 10 mM stock solutions. An additional 20-fold dilution in 1× kinase reaction buffer (see below) was performed, yielding a final dilution series in kinase buffer with 5% DMSO (final concentration in assay from 20 μM to 0.26 nM, 1% DMSO). As controls, Takinib was prepared as positive control (3 μM final in assay), and DMSO without inhibitor served as negative control, at a final assay concentration of DMSO of 1%.
One μl of compound solution in 5% DMSO was added to each well in a 384 well microtiter plate (OptiPlate #6007290). Two μl TAK1-TAB1 (7.5 ng/μl) in lxkinase reaction buffer ([…] Tris base pH 7.5, 20 mM MgCl2, 50 μM DTT, 0.1 mg/ml BSA) was added and pre-incubated 10 min before adding 2 μl of a mixture of MBP substrate and ATP (0.25 μg/μL MBP/25 μM ATP or 0.25 μg/μL MBP/2.5 mM ATP) in 1× kinase reaction buffer (as above). The plate was subsequently incubated at room temperature for 1 hour. Then 5 μl ADP-Glo™ reagent from ADP-Glo™ kit (as above) was added and incubated for 40 min to stop the reaction and consume remaining ATP. Ten μl kinase detection substrate (dissolved in kinase detection buffer, both from ADP-Glo™ kit as above) was then added to convert ADP to ATP and detect ATP with luciferase/luciferin. The plate was incubated for 30 minutes at room temperature in dark before reading luminescence on an Envision (PerkinElmer) reader.
IC50 values of compounds of the invention were determined by the non-linear regression analysis of dose response curves.
(In general: ADP-Glo turns the ADP formed in a reaction into a luminescent signal.)

The mark [1] stands for this setting: 10 μM ATP, read-out: TAK1 Mean IC50 (nM) @ 10 μM ATP.
[2] abbreviates: 1 mM ATP, read-out: TAK1 Mean IC50 (nM) @ 1 mM ATP.

Where two headings read alike, the source gives them in different places.

As a reminder, the IC50 is the concentration at which inhibition is half-maximal.

human recombinant TAK1-TAB1 Kinase (TAK1 (1-303) and TAB1 (437-end)), sequence (O43318 other isoform, or with tags, fused parts or gaps): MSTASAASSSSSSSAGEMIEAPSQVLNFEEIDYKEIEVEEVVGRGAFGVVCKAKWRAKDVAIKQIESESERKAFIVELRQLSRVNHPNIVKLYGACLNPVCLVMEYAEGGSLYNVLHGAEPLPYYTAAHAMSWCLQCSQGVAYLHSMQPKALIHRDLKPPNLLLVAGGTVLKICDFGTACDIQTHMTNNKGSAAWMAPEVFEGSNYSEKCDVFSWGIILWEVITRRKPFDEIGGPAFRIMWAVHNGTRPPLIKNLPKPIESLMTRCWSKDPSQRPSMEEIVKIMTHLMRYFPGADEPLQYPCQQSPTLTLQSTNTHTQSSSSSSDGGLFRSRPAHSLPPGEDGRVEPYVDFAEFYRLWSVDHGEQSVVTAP

As for `CC1CCCCNC(=O)c2cccc(c2)C(=O)/N=C2\Nc3cccc(C(=O)N4CC[C@@H](F)C4)c3N21` (single isomer, unassigned) [Example 93], under setting [1], the IC50 was determined as 6 nM.
In the case of `CC1CCCCNC(=O)c2nc(cs2)C(=O)/N=C2\Nc3cccc(C(=O)N(C)C)c3N21` (single isomer, unassigned) [Example 108, (1^2Z,4^2E)-N,N,5-trimethyl-2,11-dioxo-4^2,4^3-dihydro-4^1H-3,10-diaza-1(4,2)-thiazola-4(2,1)-benzo[d]imidazolacycloundecaphane-4^7-carboxamide], the half-inhibitory concentration (IC50) under setting [2] amounted to 23 nM.
As for `CC1CCCCNC(=O)c2nc(cs2)C(=O)/N=C2\Nc3cccc(C(=O)N(C)C)c3N21` (single isomer, unassigned) [Example 109, (1^2Z,4^2E)-N,N,5-trimethyl-2,11-dioxo-4^2,4^3-dihydro-4^1H-3,10-diaza-1(4,2)-thiazola-4(2,1)-benzo[d]imidazolacycloundecaphane-4^7-carboxamide], the IC50 under setting [2] is 114 nM.
Regarding `C[C@H]1CCCCNC(=O)c2cccc(c2)C(=O)/N=C2\Nc3cccc(C(=O)N4CCC5(CCO5)C4)c3N21` (single isomer, unassigned) [Example 120], the IC50 under setting [1] is 5 nM and the IC50 under setting [2] came to 14 nM.
In the case of `C[C@H]1CCCCNC(=O)c2cccc(c2)C(=O)/N=C2\Nc3cccc(C(=O)N4CCC5(CCO5)C4)c3N21` (single isomer, unassigned) [Example 121], the IC50 runs as follows: under setting [1], 5 nM; under setting [2], 19 nM.
In the same order, the values of `C[C@H]1CCCCNC(=O)c2cccc(c2)C(=O)/N=C2\Nc3ccnc(N4CCC(F)C4=O)c3N21` (single isomer, unassigned) [Example 126] are 4 nM and 12 nM.
As for `C[C@H]1CCCCNC(=O)c2cccc(c2)C(=O)/N=C2\Nc3ccnc(N4CCC(F)C4=O)c3N21` (single isomer, unassigned) [Example 127], the IC50 was determined as 5 nM under setting [1] and 18 nM under setting [2].
Take `Cc1nnc(-c2cccc3c2N2/C(=N/C(=O)c4cccc(c4)C(=O)NCCCCC2C)N3)o1` (single isomer, unassigned) [Example 132, (E)-11-methyl-1^7-(5-methyl-1,3,4-oxadiazol-2-yl)-1^2,1^3-dihydro-1^1H-2,6-diaza-1(2,1)-benzo[d]imidazola-4(1,3)-benzenacycloundecaphane-3,5-dione]: the IC50 under setting [1] came to 10 nM and the IC50 under setting [2] came out at 10 nM.
Regarding `Cc1nnc(-c2cccc3c2N2/C(=N/C(=O)c4cccc(c4)C(=O)NCCCCC2C)N3)o1` (single isomer, unassigned) [Example 133, (E)-11-methyl-1^7-(5-methyl-1,3,4-oxadiazol-2-yl)-1^2,1^3-dihydro-1^1H-2,6-diaza-1(2,1)-benzo[d]imidazola-4(1,3)-benzenacycloundecaphane-3,5-dione], the 50% inhibitory concentration (IC50) runs as follows: under setting [1], 10 nM; under setting [2], 12 nM.
`CC1CCCCNC(=O)c2cccc(c2)C(=O)/N=C2\Nc3cccc(-c4nccn4C)c3N21` (single isomer, unassigned) [Example 135, (E)-11-methyl-1^7-(1-methyl-1H-imidazol-2-yl)-1^2,1^3-dihydro-1^1H-2,6-diaza-1(2,1)-benzo[d]imidazola-4(1,3)-benzenacycloundecaphane-3,5-dione]: the IC50 under setting [1] is 6 nM.
In the case of `CC1CCCCNC(=O)c2cccc(c2)C(=O)/N=C2\Nc3cccc(-c4ncn(C(F)F)n4)c3N21` (single isomer, unassigned) [Example 137, (E)-1^7-(1-(difluoromethyl)-1H-1,2,4-triazol-3-yl)-11-methyl-1^2,1^3-dihydro-1^1H-2,6-diaza-1(2,1)-benzo[d]imidazola-4(1,3)-benzenacycloundecaphane-3,5-dione], the IC50 under setting [1] came out at 9 nM.
On the same count and under the same terms, then `CC1CCCCNC(=O)c2cccc(c2)C(=O)/N=C2\Nc3cccc(-c4ncn(C(F)F)n4)c3N21` (single isomer, unassigned) [Example 138, (E)-1^7-(1-(difluoromethyl)-1H-1,2,4-triazol-3-yl)-11-methyl-1^2,1^3-dihydro-1^1H-2,6-diaza-1(2,1)-benzo[d]imidazola-4(1,3)-benzenacycloundecaphane-3,5-dione], with 8 nM.
With `CC1CCCCNC(=O)c2cccc(c2)C(=O)/N=C2\Nc3cccc(-c4ncnn4C(F)F)c3N21` (single isomer, unassigned) [Example 139, (E)-1^7-(1-(difluoromethyl)-1H-1,2,4-triazol-5-yl)-11-methyl-1^2,1^3-dihydro-1^1H-2,6-diaza-1(2,1)-benzo[d]imidazola-4(1,3)-benzenacycloundecaphane-3,5-dione], the concentration for half-maximal inhibition (IC50) under setting [2] was found to be 17 nM.
`CC1CCCCNC(=O)c2cccc(c2)C(=O)/N=C2\Nc3cccc(-c4ncnn4C(F)F)c3N21` (single isomer, unassigned) [Example 140, (E)-1^7-(1-(difluoromethyl)-1H-1,2,4-triazol-5-yl)-11-methyl-1^2,1^3-dihydro-1^1H-2,6-diaza-1(2,1)-benzo[d]imidazola-4(1,3)-benzenacycloundecaphane-3,5-dione]: the IC50 under setting [2] was 6 nM.
Take `CC1CCCCNC(=O)c2cccc(c2)C(=O)/N=C2\Nc3cccc(N4CCN(C5CC5)C4=O)c3N21` (single isomer, unassigned) [Example 141, (E)-1^7-(3-cyclopropyl-2-oxoimidazolidin-1-yl)-11-methyl-1^2,1^3-dihydro-1H-2,6-diaza-1(2,1)-benzo[d]imidazola-4(1,3)-benzenacycloundecaphane-3,5-dione]: under setting [2], the IC50 is 15 nM.
On to `CC1CCCCNC(=O)c2cccc(c2)C(=O)/N=C2\Nc3cccc(N4CCN(C5CC5)C4=O)c3N21` (single isomer, unassigned) [Example 142, (E)-1^7-(3-cyclopropyl-2-oxoimidazolidin-1-yl)-11-methyl-1^2,1^3-dihydro-1H-2,6-diaza-1(2,1)-benzo[d]imidazola-4(1,3)-benzenacycloundecaphane-3,5-dione], for which the IC50 reads like this: under setting [1], 7 nM; under setting [2], 8 nM.
As to `CC1CCCCNC(=O)c2cccc(c2)C(=O)/N=C2\Nc3cccc(N4CCN(C5COC5)C4=O)c3N21` (single isomer, unassigned) [Example 143, (E)-11-methyl-1^7-(3-(oxetan-3-yl)-2-oxoimidazolidin-1-yl)-1^2,1^3-dihydro-1^1H-2,6-diaza-1(2,1)-benzo[d]imidazola-4(1,3)-benzenacycloundecaphane-3,5-dione], the IC50 under setting [2] was determined as 14 nM.
With `CC1CCCCNC(=O)c2cccc(c2)C(=O)/N=C2\Nc3cccc(N4CCN(C5COC5)C4=O)c3N21` (single isomer, unassigned) [Example 144, (E)-11-methyl-1^7-(3-(oxetan-3-yl)-2-oxoimidazolidin-1-yl)-1^2,1^3-dihydro-1^1H-2,6-diaza-1(2,1)-benzo[d]imidazola-4(1,3)-benzenacycloundecaphane-3,5-dione], the IC50 under setting [2] came to 10 nM.
Regarding `CNC(=O)c1cccc2nc3n(c12)C(C)CCCCNC(=O)c1cccc(c1)C(=O)N3` (centres unmarked) [Example 34, (E)-N,11-dimethyl-3,5-dioxo-1^2,1^3-dihydro-1^1H-2,6-diaza-1(2,1)-benzo[d]imidazola-4(1,3)-benzenacycloundecaphane-1^7-carboxamide], the IC50 under setting [1] is 2 nM.
As to `CC1CCCCNC(=O)c2cccc(c2)C(=O)/N=C2\Nc3cccc(C(=O)N4CCC(F)(F)C4)c3N21` (centres unmarked) [Example 37, (E)-1^7-(3,3-difluoropyrrolidine-1-carbonyl)-11-methyl-1^2,1^3-dihydro-1^1H-2,6-diaza-1(2,1)-benzo[d]imidazola-4(1,3)-benzenacycloundecaphane-3,5-dione], the IC50 under setting [1] came to 5 nM.
With `COC(=O)CN(C)C(=O)c1cccc2c1N1/C(=N/C(=O)c3cccc(c3)C(=O)NCCCCC1C)N2` (centres unmarked) [Example 38, methyl (E)-N-methyl-N-(11-methyl-3,5-dioxo-1^2,1^3-dihydro-1^1H-2,6-diaza-1(2,1)-benzo[d]imidazola-4(1,3)-benzenacycloundecaphane-1^7-carbonyl)glycinate], the IC50 under setting [1] came to 4 nM.
Consider `CC1CCCCNC(=O)c2cccc(c2)C(=O)/N=C2\Nc3cccc(C(=O)N(C)C4CCC4)c3N21` (centres unmarked) [Example 39, (E)-N-cyclobutyl-N,11-dimethyl-3,5-dioxo-1^2,1^3-dihydro-1^1H-2,6-diaza-1(2,1)-benzo[d]imidazola-4(1,3)-benzenacycloundecaphane-1^7-carboxamide], for which the IC50 under setting [1] is 6 nM.

Source of the values: patent publication US20240279233A1, “MACROCYCLIC TAK1 INHIBITORS” (Aqilion AB, priority 2021, published 2024).
